Experimental data as given in publication PMC11013038, “Design, Synthesis, and Evaluation of B-(Trifluoromethyl)phenyl Phosphine–Borane Derivatives as Novel Progesterone Receptor Antagonists” (Molecules, 2024).

Tests used:
[1] = biological target: T1, progesterone receptor (PR) (Homo sapiens, UniProt P06401); assay: T47D alkaline phosphatase assay, PR antagonistic activity in the presence of 1 nM P4; format: cell-based; settings: T47D cells, 1.0 nM P4, 48 h; mean ± SD from three independent experiments
T1 construct: alkaline phosphatase assay with the T47D human breast cancer cell line; endogenous in cells; host or cells: T47D
T1 sequence (P06401 1-933): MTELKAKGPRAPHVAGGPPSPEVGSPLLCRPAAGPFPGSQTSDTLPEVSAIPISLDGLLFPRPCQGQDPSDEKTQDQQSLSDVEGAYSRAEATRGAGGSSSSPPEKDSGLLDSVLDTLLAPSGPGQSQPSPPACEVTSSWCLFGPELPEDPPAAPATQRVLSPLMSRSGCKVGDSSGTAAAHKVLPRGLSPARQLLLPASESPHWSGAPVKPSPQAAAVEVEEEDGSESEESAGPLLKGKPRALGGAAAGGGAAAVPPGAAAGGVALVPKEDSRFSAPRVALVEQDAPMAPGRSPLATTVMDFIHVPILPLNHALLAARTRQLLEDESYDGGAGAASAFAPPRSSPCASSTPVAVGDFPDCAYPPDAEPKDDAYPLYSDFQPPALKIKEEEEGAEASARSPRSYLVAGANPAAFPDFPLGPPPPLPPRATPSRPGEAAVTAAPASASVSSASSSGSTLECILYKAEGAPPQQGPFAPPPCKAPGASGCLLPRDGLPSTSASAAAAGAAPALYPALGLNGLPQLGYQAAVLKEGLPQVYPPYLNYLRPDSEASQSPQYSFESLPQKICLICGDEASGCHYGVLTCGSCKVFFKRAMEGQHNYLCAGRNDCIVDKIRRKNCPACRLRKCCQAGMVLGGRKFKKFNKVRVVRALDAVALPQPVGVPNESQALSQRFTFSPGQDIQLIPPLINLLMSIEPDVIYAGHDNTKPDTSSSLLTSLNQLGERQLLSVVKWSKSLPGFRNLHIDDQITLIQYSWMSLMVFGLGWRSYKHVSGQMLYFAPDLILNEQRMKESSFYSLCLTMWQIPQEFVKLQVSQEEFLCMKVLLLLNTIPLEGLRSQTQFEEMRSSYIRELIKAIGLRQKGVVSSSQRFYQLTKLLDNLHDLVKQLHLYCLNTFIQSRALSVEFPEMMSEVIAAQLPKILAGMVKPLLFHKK
Experimental: The PR agonistic and antagonistic activities of the synthesized phosphine–borane derivatives were evaluated using an alkaline phosphatase assay with the T47D human breast cancer cell line. […] The basal alkaline phosphatase activity was also not affected by the tested compounds alone. […] The PR antagonistic activities of the compounds were assessed in the presence of 1 nM of P4 (5). We also calculated the molecular volume of each compound to investigate the structure–activity relationship (SAR). Table 2 summarizes the PR antagonistic activity and calculated volumes of the synthesized compounds. […] We investigated the binding affinity of the compounds toward the PR ligand-binding domain (LBD) using a fluorescence polarization assay system. […] We also investigated the activity of compounds 28 and 34 toward the androgen receptor (AR) by means of cell-proliferation promoting/inhibitory activity toward androgen-dependent SC-3 cells. […].
T47D alkaline phosphatase assays were performed as previously described, with minor modifications. Briefly, the human breast cancer cell line T47D (HMS LINCS database Accession Numbers: 50541) was routinely cultivated in RPMI 1640 medium with 10% FBS at 37 °C in a 5% CO2 humidified incubator. The cells were plated in 96-well plates and incubated overnight in a 5% CO2 humidified incubator at 37 °C. The next day, the cells were treated with a fresh medium containing the test compound in the presence of 1 nM of progesterone and further incubated for 48 h. The medium was aspirated, and the cells were fixed with 100 μL of 1.8% formalin–PBS. The fixed cells were washed with PBS, and 100 μL of an assay buffer (1 mg/mL p-nitrophenol phosphate in diethanolamine water solution, pH 9.0) was added. The mixture was incubated at room temperature for 2 h under light-shielded conditions. The absorbance was measured at 405 nm using a DTX 880 Multimode Detector (Beckman Coulter, Brea, CA, USA). All data points were measured in triplicate, and IC50 values were calculated from three independent experiments.

[2] = LogP (1-octanol/water partition coefficient) determined using HPLC; format: physicochemical; settings: HPLC; tentative value: hydrophobicity beyond the range of the reference compounds (1.9 < LogP < 6.5)
Experimental: Hydrophobicity is a key determinant of the activity and pharmacokinetics of biologically active compounds, and the octanol–water partition coefficient (P) and logarithm value (LogP) are widely used hydrophobicity parameters. The LogP values of the synthesized compounds were determined using HPLC [45, 46]. Table 1 summarizes the experimentally determined LogP values and calculated values. […] From the viewpoint of the phosphine structure, an increase in the number of carbon atoms increased hydrophobicity in a predictable manner.
The 1-octanol/water partition coefficient P was determined using HPLC based on the OECD Guideline for Testing Chemicals. A COSMOSIL Packed Column 5C18-MS-II (5 μm, 150 mm × 4.6 mm id, Nacalai Tesque, Inc., Kyoto, Japan) was fitted on an HPLC instrument (Multiwavelength Detector, MD-2010 Plus. JASCO, Tokyo, Japan) equipped with a pump (PU-2080, JASCO) and an oven (SSC-2120, Senshu Scientific Co., Ltd., Tokyo, Japan). The injection volume was 20 µL; the mobile phase was methanol–water 75% (v/v); and the flow rate was 1.0 mL/min in all cases. Compounds were detected by measuring the UV absorption at 240 nm. The temperature of the column was kept at 40.0 (± 0.1) °C during the measurement. The measurement was performed in triplicate, and the mean value was calculated. The dead time t0 was measured with thiourea as the unretained compound, and the capacity factor k was calculated using the equation logk = log (tr − t0/t0), where tr represents the retention time of the compound. A calibration graph was determined experimentally using reference compounds (4-methylphenol, 4-chlorophenol, 4-phenylphenol, diphenylether, fluoranthene, and dichlorodiphenyltrichloroethane) with known logP values. The LogP values of phosphine–boranes were calculated based on a calibration graph (LogP = 2.6269 logkw + 3.059, R^2 = 0.9915).

Compound: FC(F)(F)c1ccc([BH2-][P+](C2CCCC2)(C2CCCC2)C2CCCC2)cc1 [Compound 36, B-4-(Trifluoromethyl)phenyl Tricyclopentylphosphine–Borane]
- melting point: 88 to 88.6 °C
- IC50 [1]: 2.63 ± 0.72 µM
- chromatographic logP [2]: 7.95
